Laboratory results published in patent US20240398756A1, “DRUG FOR REDUCING BLOOD GLUCOSE AND/OR TREATING DIABETIC COMPLICATIONS” (SICHUAN UNIVERSITY, priority 2022, published 2024).
Counter-ions that a name gives are not always drawn.

How the values were obtained:
C57BL/KsJ db/db mice [1] = assay: Serum CRE, BUN and UACR in diabetic nephropathy mice; type: in vivo; settings: 30 mg/kg i.p. once a day, four weeks
Protocol: (§1) 10-week male C57BL/KsJ db/db mice, SPF grade, provided by Jiangsu GemPharmatech Co. Ltd., Changzhou Branch, certificate number: 202012449, with an initial weight of 44±2 g, underwent adaptive feeding for two weeks. […] There were 6 littermate w/w male mice of the same week age as the solvent control group. Different doses were given by intraperitoneal injection at 10 mL/kg volume once a day for four weeks, respectively, and equal volumes of normal saline were given by intraperitoneal injection in the control and model groups. During the treatment cycle, the blood glucose changes in mice were detected every three days, and the percentages of blood glucose reduced by the drugs were calculated based on the difference between the blood glucose of the model and the normal control group, so as to clarify the hypoglycemic effect of the drugs.

C57BL/KsJ db/db mice [2] = assay: Serum insulin content and insulin resistance index in db/db diabetic mice; type: in vivo; settings: gavage, end of 1 month treatment, nanoparticles 100 mg/kg every 3 days, LA monomer 100 mg/kg and metformin 120 mg/kg daily
Excerpt: 8-week male C57BL/KsJ db/db mice, SPF grade, provided by Jiangsu GemPharmatech Co. Ltd., Changzhou Branch, certificate number: 202012449, with an initial weight of 44±2 g, underwent adaptive feeding for one week. A total of 24 C57BL/KsJ db/db mice were randomly divided into 4 groups according to body weight and blood glucose, with 6 mice in each group. […] There were 6 littermate w/w male mice of the same week age as the solvent control group. […] After administration of a single dose, the blood glucose changes of mice were continuously monitored for 3 days. During the 1-month treatment cycle, the blood glucose changes of the mice were detected every 3 days. […] The mice were killed by enucleation and bloodletting, serum samples were collected by centrifugation at room temperature, the serum insulin content was detected by mouse insulin ELISA detection kit, and the insulin resistance index was calculated, and the percentage of the drug to reduce the serum insulin content and insulin resistance index was calculated based on the difference between the model and the normal control group. The results of the quantitative experiment were expressed as mean±variance (x±s). SPSS version19.0 Statistical Software (Chicago, IL, USA) was used to compare the differences between groups using one-way analysis of variance. When the difference was significant (P<0.05), the Turkey post hoc method was used for pairwise comparison, and when P<0.05, the difference was considered statistically significant.

C57BL/KsJ db/db mice [3] = assay: SOD activity and MDA, GSH contents in sciatic nerve; type: in vivo; settings: 50 mg/kg i.p. three times a week, 8 weeks
Protocol: (§2) Eighteen 16-week male C57BL/KsJ db/db mice, SPF grade, provided by Jiangsu GemPharmatech Co. Ltd., Changzhou Branch. […] The littermate w/w male mice of the same age were selected as the control group. The heat pain threshold was measured in all mice before administration to determine DPN symptoms. […] The control group and the db/db model group were intraperitoneally injected with an equal volume of saline. During the treatment period, blood glucose changes in mice were monitored every three days to determine the hypoglycemic effect of the drug. At the end of the 8th week, the heat pain threshold was detected. Mice were sacrificed to detect related factors through detection kits.
(§3) At the end of the experiment, mice were sacrificed and sciatic nerve cells were isolated. In order to determine the contents of MDA, GSH, SOD, TNF-α, IL-6 and IL-1β in the sciatic nerve, the sciatic nerve was first cut into fragments (100 mg: 1800 μL) with small scissors in normal saline and homogenized with Beed Ruptor 24 Elite. Then, the homogenate was centrifuged at 4° C. and 3500 rpm for 15 min, and the supernatant was collected for use. Then, commercial kits were used to determine the activity of SOD and the contents of MDA, GSH, TNF-α, IL-6 and IL-1β in sciatic nerve homogenate.

C57BL/KsJ db/db mice [4] = assay: MDA content and SOD activity in kidney tissues; type: in vivo; settings: 30 mg/kg i.p. once a day, 4 weeks
Protocol: as §1

C57BL/KsJ db/db mice [5] = assay: Blood glucose in db/db type 2 diabetes mice (Embodiment 4); type: in vivo; settings: gavage; for reduction of blood glucose contents: 1 month, nanoparticles 100 mg/kg once every 3 days, LA monomer 100 mg/kg and metformin 120 mg/kg once a day, relative to model-normal control difference
Protocol: A total of 24 C57BL/KsJ db/db mice were randomly divided into 4 groups according to body weight and blood glucose, with 6 mice in each group. […] There were 6 littermate w/w male mice of the same week age as the solvent control group. […] After administration of a single dose, the blood glucose changes of mice were continuously monitored for 3 days. During the 1-month treatment cycle, the blood glucose changes of the mice were detected every 3 days. On the 30th day, 2 h after the end of administration, the blood glucose of mice was measured, and the percentage of blood glucose reduced by the drug was calculated based on the difference between the blood glucose of the model and the normal control group. The mice were killed by enucleation and bloodletting, serum samples were collected by centrifugation at room temperature, the serum insulin content was detected by mouse insulin ELISA detection kit, and the insulin resistance index was calculated, and the percentage of the drug to reduce the serum insulin content and insulin resistance index was calculated based on the difference between the model and the normal control group.
The results of the quantitative experiment were expressed as mean±variance (x±s). SPSS version19.0 Statistical Software (Chicago, IL, USA) was used to compare the differences between groups using one-way analysis of variance. When the difference was significant (P<0.05), the Turkey post hoc method was used for pairwise comparison, and when P<0.05, the difference was considered statistically significant.

C57BL/KsJ db/db mice [6] = assay: Blood glucose in db/db diabetic peripheral neuropathy mice (Embodiment 8); type: in vivo; settings: 50 mg/kg i.p. three times a week, 8 weeks
Protocol: as §2

C57BL/KsJ db/db mice [7] = assay: TNF-α, IL-1β and IL-6 contents in sciatic nerve; type: in vivo; settings: 50 mg/kg i.p. three times a week, 8 weeks
Protocol: as §2, §3

C57BL/KsJ db/db mice [8] = assay: Blood glucose in db/db diabetic nephropathy mice (Embodiment 6); type: in vivo; settings: 30 mg/kg intraperitoneal once a day, four weeks
Protocol: as §1, with “drugs. […] The results of the quantitative experiment were expressed as mean±variance (x±s). SPSS version19.0 Statistical Software (Chicago, IL, USA) was used to compare the differences between groups using one-way analysis of variance. When the difference was significant (P<0.05), the Turkey post hoc method was used for pairwise comparison, and when P<0.05, the difference was considered statistically significant.” for “drugs.”

C57BL/KsJ db/db mice [9] = assay: Kidney tissue pathology (HE, PAS, TEM) in diabetic nephropathy mice; type: in vivo; settings: 30 mg/kg i.p. once a day, four weeks
Protocol: as §1

[10] = intravenous injection, human body; cited from earlier work
C57BL/KsJ db/db mice [11] = assay: Transcript levels of TNF-α, IL-1β and IL-6 genes in kidney tissues; type: in vivo; settings: 30 mg/kg i.p. once a day, 4 weeks
Protocol: as §1

C57BL/KsJ db/db mice [12] = assay: Na+-K+-ATPase activity in red blood cells and sciatic nerve; type: in vivo; settings: 50 mg/kg i.p. three times a week, 8 weeks
Protocol: as §2
After 8 weeks treatment, all mice were sacrificed and the sciatic nerve was isolated. In order to determine the activity of Na^+—K^+-ATPase in red blood cells and sciatic nerve of mice, 10 μL whole blood was collected and added into 240 μL distilled water for mixing, and the activity of Na^+—K^+-ATPase was determined immediately. The sciatic nerve tissue of mice was collected. First, the sciatic nerve was cut into fragments (100 mg: 1800 μL) with small scissors in normal saline and homogenized with Beed Ruptor 24 Elite. Then, the homogenate was centrifuged at 4° C. and 3500 rpm for 15 min, and the supernatant was collected for use.

O=C(O)CCCCC1CCSS1 (centres unmarked) [LA monomer, lipoic acid]
decrease of BUN content vs db/db model group (C57BL/KsJ db/db mice [1]): 25.45%
decrease of UACR level vs db/db model group (C57BL/KsJ db/db mice [1]): 24.75%
decrease of serum CRE vs db/db model group (C57BL/KsJ db/db mice [1]): 21.05%
decrease of serum insulin content (C57BL/KsJ db/db mice [2]): no significant difference
decrease of MDA content in sciatic nerve (C57BL/KsJ db/db mice [3]): 30.79%
increase of GSH content in sciatic nerve (C57BL/KsJ db/db mice [3]): 10.79
increase of SOD activity in sciatic nerve (C57BL/KsJ db/db mice [3]): 15.76%
increase of SOD activity in kidney tissues (C57BL/KsJ db/db mice [4]): 55%
reduction of MDA content in kidney tissues (C57BL/KsJ db/db mice [4]): 9.8%
reduction of blood glucose contents (C57BL/KsJ db/db mice [5]): no hypoglycemic effect
blood glucose levels versus model group after a single dose (C57BL/KsJ db/db mice [5]; single dose 100 mg/kg, monitored 3 days): no significant difference
hypoglycemic effect (in words) (C57BL/KsJ db/db mice [6]): no hypoglycemic effect
decrease of IL-1β level in sciatic nerve tissue vs db/db mice (C57BL/KsJ db/db mice [7]): 27.46%
decrease of IL-6 level in sciatic nerve tissue vs db/db mice (C57BL/KsJ db/db mice [7]): 38.42%
decrease of TNF-α level in sciatic nerve tissue vs db/db mice (C57BL/KsJ db/db mice [7]): 34.42%
reduction of blood glucose content (C57BL/KsJ db/db mice [8]): no hypoglycemic effect
decrease of basement membrane thickness vs db/db model group (C57BL/KsJ db/db mice [9]): 6.57%
increase of number of foot processes vs db/db model group (C57BL/KsJ db/db mice [9]): 10.14%
shrinkage of glomeruli vs db/db model group (C57BL/KsJ db/db mice [9]): 25.50%
fraction passing through the glomerulus into the renal tubules and excreted in the urine [10]: 80-90%
reduction of IL-1β transcript level in kidney (C57BL/KsJ db/db mice [11]): 18.18%
reduction of IL-6 transcript level in kidney (C57BL/KsJ db/db mice [11]): 23.33%
reduction of TNF-α transcript level in kidney (C57BL/KsJ db/db mice [11]): 22.5%
increase of Na+-K+-ATPase activity in sciatic nerve vs db/db mice (C57BL/KsJ db/db mice [12]): 120%
increase of Na+-K+-ATPase activity of red blood cells vs db/db mice (C57BL/KsJ db/db mice [12]): 137%

CN(C)C(=N)N=C(N)N [metformin, metformin hydrochloride]
decrease of insulin resistance index (C57BL/KsJ db/db mice [2]): 53.68%
decrease of serum insulin content (C57BL/KsJ db/db mice [2]): 34.69%
reduction of blood glucose contents (C57BL/KsJ db/db mice [5]): 50.28%
duration of hypoglycemic effect after a single dose (C57BL/KsJ db/db mice [5]; single dose, nanoparticles 100 mg/kg, metformin 120 mg/kg): ≤ 24 h
